# Experimental data published in patent US20070293559A1, “Orally Administered Agent For Preventing Or Improving Dry Station Of Skin” (priority 2004, published 2007).
# Legend:
# HOS:HR-1 mice [1] = experiment: Transepidermal water loss (TEWL) in mice with dry skin induced by special feed; format: in vivo; settings: for TEWL value: right rump, group average
# Procedure: HOS:HR-1 mice (female, 4 weeks old, purchased from SLC Japan) were used in the test. The breeding conditions were that the room temperature was 22±2° C., the humidity was 50±5% and a feed and water were freely ingested.
# Each test group consisted of 10 mice. A commercially available powder feed CE-2 was fed to mice of the first group, a special feed (manufactured by Nippon Nosan Kogyo K.K.) was fed to mice of the second group, the special feed containing 0.5% by weight of hydroxyproline was fed to mice of the third group, and the special feed containing 1% by weight of hydroxyproline was fed to mice of the fourth group. The dry skin was induced in HOS:HR-1 mice by feeding of the special feed (The journal of international medical research pharmacology, 32, 392-399 (2004)).
# A transepidermal water loss (TEWL) value of the right rump of each mouse was measured as an index of a barrier function of stratum corneum at the start-up of the feeding of each feed, after four weeks and after six weeks using Tewameter TM210 (Courage+Khazaka electronic GmbH, Germany), and an average value of each group was calculated.
# HOS:HR-1 mice [2] = experiment: Water content of the skin surface (SKICON-200) after oral ingestion in feed; format: in vivo; settings: CE-2 feed containing 0.5% or 1% by weight of hydroxyproline, two to five weeks of feeding, relative to CE-2 group
# Procedure: HOS:HR-1 mice (male, 5 weeks old, purchased from SLC Japan) were used in the test. The breeding conditions were that the room temperature was 22±2° C., the humidity was 35±15% and a feed and water were freely ingested.
# Each test group consisted of 10 mice. A commercially available powder feed CE-2 (manufactured by Clea Japan) was fed to mice of the first group, CE-2 containing 0.5% by weight of trans-4-hydroxy-L-proline (hereinafter also referred to simply as hydroxyproline; manufactured by Kyowa Hakko Kogyo Co., Ltd.) was fed to mice of the second group, and CE-2 containing 1% by weight of hydroxyproline was fed to mice of the third group.
# The water content of the skin surface on the back thigh upper portion of each mouse was measured with SKICON-200 (manufactured by IBS) every one week, from two weeks to five weeks after the start-up of the feeding of each feed. The measurement was conducted ten times for each mouse, and an average value of each mouse was obtained. Further, an average value of each test group was calculated.
# The relative epidermal water content was calculated according to the following formula using the average value. Relative epidermal water content (%)=(A2/A1)×100 • A1: Epidermal water content of the first group • A2: Epidermal water content of the second or third group
smiles,measurement,setting,value
"O=C(O)[C@@H]1C[C@@H](O)CN1 [hydroxyproline, trans-4-hydroxy-L-proline]","transepidermal water loss, t-test in comparison with the second group","HOS:HR-1 mice [1]; fourth group (1% hydroxyproline in special feed), risk rate of less than 5% defined as significant",significant difference
same,TEWL value,"HOS:HR-1 mice [1]; fourth group: special feed containing 1% by weight of hydroxyproline, feeding period 0 week (start-up)",5.07 g/m^2/hour
same,TEWL value,"HOS:HR-1 mice [1]; fourth group: special feed containing 1% by weight of hydroxyproline, feeding period 4 weeks",25.07 g/m^2/hour
same,TEWL value,"HOS:HR-1 mice [1]; fourth group: special feed containing 1% by weight of hydroxyproline, feeding period 6 weeks",25.40 g/m^2/hour
same,barrier function of stratum corneum,HOS:HR-1 mice [1]; oral ingestion of hydroxyproline,effect of improving the barrier function of stratum corneum
same,increase in transepidermal water loss,HOS:HR-1 mice [1]; third and fourth groups (0.5% and 1% hydroxyproline in special feed) versus second group (special feed),suppressed dependently on the concentration
same,TEWL value,"HOS:HR-1 mice [1]; third group: special feed containing 0.5% by weight of hydroxyproline, feeding period 0 week (start-up)",4.99 g/m^2/hour
same,TEWL value,"HOS:HR-1 mice [1]; third group: special feed containing 0.5% by weight of hydroxyproline, feeding period 4 weeks",29.80 g/m^2/hour
same,TEWL value,"HOS:HR-1 mice [1]; third group: special feed containing 0.5% by weight of hydroxyproline, feeding period 6 weeks",29.04 g/m^2/hour
same,"water content of the skin (relative epidermal water content, FIG. 1)",HOS:HR-1 mice [2],markedly improved
